Data reported in ChEMBL document CHEMBL1201862, “PubChem BioAssay data set” (2004).
Active and inactive are the calls of the source.

Columns and labels:
[1] = inhibitors of SNCA 5'UTR-driven reporter translation, confirmation, H4 neuroglioma cells, luminescence (AID 1988); format: functional, cell-based
[2] = Luminescence Cell-Based Dose Response HTS to Identify Inhibitors of 5'UTR Stem-Loop Driven Prion Protein mRNA Translation in H4 Neuroglioblastoma Cells. [Related pubchem assays: 1827 (Project Summary), 1813 (Primary HTS)]; format: functional
[3] = inhibitors of firefly luciferase expression or activity, dose response, H4 neuroglioma cells, luminescence (AID 1990); format: functional, cell-based
[4] = cytotoxicity in HEK-293T cells, dose response, cytotoxicity control for BCR NF-kB inhibitor project, luminescence, B-cell screen hits (AID 489021); format: functional, cell-based;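 note: HEK-293T cells carrying an NF-kB luciferase reporter; cells exposed to compound for about 14 hours before viability readout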
[5] = LGR2 antagonists, dose response, cell-based, HEK293, CRE-luciferase reporter, cherry pick, set 2 (AID 743343); format: functional;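 note: transfected cells were stimulated with diluted bursicon conditioned medium after compound addition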
[6] = MC4R antagonists, dose response, counter-screen for LGR2 antagonist project, cell-based, plate reader, cherry pick (AID 743444); format: functional;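 note: transfected HEK 293 cells stimulated with alpha-MSH peptide; potency of inhibitors of the alpha-MSH evoked signal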
[7] = molecular target: T1, Heat shock factor protein 1 (Mus musculus, UniProt P38532); test: inhibition of MG132-induced HSE-luciferase signal, confirmation, cell-based, NIH3T3, luminescence, dose retest (AID 2382); format: functional;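 note: NIH3T3 fibroblasts with HSF1-driven luciferase reporter stressed by proteasome inhibitor MG132; luminescence from HSF1-driven luciferase expression after 8 hours of MG132 stress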
T1 sequence (P38532 whole entry): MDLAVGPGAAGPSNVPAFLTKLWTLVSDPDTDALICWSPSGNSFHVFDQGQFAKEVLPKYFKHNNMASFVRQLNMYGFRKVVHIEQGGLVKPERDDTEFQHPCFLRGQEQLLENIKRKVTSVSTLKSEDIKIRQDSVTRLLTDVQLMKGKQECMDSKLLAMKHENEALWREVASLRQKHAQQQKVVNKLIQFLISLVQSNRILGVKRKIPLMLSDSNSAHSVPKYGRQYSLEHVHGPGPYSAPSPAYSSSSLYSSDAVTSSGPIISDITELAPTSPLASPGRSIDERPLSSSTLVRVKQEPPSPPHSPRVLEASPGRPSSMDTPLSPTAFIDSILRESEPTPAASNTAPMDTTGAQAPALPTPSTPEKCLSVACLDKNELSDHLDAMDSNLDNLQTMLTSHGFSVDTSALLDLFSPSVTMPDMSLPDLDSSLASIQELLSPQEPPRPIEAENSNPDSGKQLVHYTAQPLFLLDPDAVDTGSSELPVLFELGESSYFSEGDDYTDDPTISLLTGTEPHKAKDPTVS

Fatty acid synthase [8] = molecular target: T2, Fatty acid synthase (Homo sapiens, UniProt P49327); test: FAS thioesterase domain inhibitors, dose response, biochemical, endpoint fluorescence intensity, uHTS hits (AID 624327); format: functional;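 note: fluorescence from hydrolysis of an O-methyl fluorescein acyl ester substrate by the enzyme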
T2 sequence (P49327 whole entry, the tested form may be a part): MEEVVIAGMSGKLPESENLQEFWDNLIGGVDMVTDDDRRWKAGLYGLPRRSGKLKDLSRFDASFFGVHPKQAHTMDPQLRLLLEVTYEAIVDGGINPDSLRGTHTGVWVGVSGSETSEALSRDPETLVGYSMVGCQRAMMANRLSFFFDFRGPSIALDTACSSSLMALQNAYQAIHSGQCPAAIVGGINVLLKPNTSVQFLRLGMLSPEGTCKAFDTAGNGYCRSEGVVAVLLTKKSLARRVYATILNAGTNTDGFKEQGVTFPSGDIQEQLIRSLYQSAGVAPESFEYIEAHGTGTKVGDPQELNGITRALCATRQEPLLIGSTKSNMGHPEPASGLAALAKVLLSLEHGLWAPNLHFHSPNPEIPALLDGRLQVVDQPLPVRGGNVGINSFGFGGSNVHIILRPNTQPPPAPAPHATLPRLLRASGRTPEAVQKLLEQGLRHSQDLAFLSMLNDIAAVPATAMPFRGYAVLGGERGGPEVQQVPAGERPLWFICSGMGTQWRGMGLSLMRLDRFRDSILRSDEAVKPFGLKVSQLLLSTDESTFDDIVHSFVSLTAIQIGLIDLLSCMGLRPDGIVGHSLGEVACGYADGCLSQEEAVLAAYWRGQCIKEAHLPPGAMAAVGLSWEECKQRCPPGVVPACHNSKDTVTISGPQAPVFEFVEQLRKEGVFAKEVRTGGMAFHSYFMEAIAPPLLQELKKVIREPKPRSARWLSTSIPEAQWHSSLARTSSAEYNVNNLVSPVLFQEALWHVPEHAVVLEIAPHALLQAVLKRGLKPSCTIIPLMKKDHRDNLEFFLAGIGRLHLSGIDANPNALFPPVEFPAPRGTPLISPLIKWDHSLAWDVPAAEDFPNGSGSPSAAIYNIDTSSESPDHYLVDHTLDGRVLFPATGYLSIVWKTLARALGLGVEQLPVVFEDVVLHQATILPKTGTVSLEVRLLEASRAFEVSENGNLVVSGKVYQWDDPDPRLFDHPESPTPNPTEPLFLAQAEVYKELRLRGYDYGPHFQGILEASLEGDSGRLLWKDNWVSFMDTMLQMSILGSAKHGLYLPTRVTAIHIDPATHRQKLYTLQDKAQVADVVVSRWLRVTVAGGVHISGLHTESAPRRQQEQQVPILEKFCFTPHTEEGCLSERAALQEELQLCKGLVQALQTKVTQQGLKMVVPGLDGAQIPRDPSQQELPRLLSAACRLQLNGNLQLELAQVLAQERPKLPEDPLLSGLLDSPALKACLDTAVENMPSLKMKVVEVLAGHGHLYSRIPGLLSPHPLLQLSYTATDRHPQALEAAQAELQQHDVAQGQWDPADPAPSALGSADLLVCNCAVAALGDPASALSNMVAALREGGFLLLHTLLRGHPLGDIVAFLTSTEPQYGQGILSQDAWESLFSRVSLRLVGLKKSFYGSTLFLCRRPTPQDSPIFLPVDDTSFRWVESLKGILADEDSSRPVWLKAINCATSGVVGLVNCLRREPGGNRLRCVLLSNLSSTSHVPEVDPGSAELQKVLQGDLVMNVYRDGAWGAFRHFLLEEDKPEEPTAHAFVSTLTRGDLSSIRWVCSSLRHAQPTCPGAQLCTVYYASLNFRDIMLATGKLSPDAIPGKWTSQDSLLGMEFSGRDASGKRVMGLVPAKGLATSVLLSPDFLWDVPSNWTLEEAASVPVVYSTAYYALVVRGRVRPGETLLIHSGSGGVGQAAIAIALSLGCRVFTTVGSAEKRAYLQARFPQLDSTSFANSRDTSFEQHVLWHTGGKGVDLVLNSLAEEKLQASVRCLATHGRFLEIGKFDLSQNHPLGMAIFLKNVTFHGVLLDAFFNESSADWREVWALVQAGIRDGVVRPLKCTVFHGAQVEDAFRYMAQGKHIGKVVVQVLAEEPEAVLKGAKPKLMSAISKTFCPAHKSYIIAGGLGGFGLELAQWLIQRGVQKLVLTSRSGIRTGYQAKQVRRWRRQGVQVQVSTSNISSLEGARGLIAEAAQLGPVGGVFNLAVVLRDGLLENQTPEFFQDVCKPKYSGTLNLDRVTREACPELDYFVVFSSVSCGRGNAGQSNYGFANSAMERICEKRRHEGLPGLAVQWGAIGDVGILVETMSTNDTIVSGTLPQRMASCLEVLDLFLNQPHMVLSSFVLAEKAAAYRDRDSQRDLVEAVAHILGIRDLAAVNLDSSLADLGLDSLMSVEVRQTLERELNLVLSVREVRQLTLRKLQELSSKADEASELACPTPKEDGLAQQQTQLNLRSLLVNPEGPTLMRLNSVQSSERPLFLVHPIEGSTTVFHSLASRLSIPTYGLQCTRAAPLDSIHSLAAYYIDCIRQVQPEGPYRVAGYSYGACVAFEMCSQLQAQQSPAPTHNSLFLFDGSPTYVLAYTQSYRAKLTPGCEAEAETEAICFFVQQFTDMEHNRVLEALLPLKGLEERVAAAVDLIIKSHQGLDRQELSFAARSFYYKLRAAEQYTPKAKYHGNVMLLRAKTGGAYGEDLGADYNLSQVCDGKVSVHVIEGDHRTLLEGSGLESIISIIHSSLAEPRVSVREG

Fatty acid synthase [9] = molecular target: T2, Fatty acid synthase; test: FAS thioesterase domain inhibitors, dose response, biochemical, kinetic fluorescence intensity (AID 624326); format: functional;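 note: rate of fluorescence rise from hydrolysis of a fluorogenic O-methyl fluorescein ester substrate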
[10] = THP-1 cell cytotoxicity, dose response, cytotoxicity control for non-replicating M. tuberculosis project (AID 489025); format: functional
[11] = molecular target: T3, Oxysterols receptor LXR-beta (Homo sapiens, UniProt P55055); format: functional, cell-based;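 note: agonist activity at LXR measured by a cell-based luminescence readout across a dose range, run as a counterscreen for daf-12 agonists; HEK293 cells with Gal4-LXR fusion and GAL4-driven luciferase reporter; potency for activation of Gal4-LXR reporter so compounds are agonists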
T3 sequence (P55055 whole entry): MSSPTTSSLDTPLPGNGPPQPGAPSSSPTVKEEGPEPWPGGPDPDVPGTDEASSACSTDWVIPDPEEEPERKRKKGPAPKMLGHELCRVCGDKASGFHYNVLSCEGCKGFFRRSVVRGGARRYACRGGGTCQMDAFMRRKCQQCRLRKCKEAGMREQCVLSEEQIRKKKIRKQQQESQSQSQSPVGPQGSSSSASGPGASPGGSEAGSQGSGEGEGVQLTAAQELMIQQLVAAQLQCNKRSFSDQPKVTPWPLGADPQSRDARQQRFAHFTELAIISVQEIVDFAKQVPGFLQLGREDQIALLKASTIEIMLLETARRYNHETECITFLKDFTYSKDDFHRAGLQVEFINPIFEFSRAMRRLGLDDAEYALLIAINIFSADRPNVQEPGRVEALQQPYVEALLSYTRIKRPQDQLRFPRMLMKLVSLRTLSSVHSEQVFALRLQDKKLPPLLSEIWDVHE

[12] = intracellular Trypanosoma cruzi inhibitors in host cells – cell-based, plate reader, cherry-pick samples, set 3, dose response (AID 651818); format: functional;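 note: compounds incubated with infected cells for about four days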
Paired box protein Pax-8 = Paired box protein Pax-8 (Homo sapiens, UniProt Q06710); test: inhibitors of PAX8-driven TPO luciferase reporter, dose response, RMG-I cells, cherry-pick (AID 687027); format: functional, cell-based;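 note: luciferase reporter driven by Pax8 target thyroperoxidase promoter measured by SteadyGlo luminescence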
Paired box protein Pax-8, sequence (Q06710 whole entry): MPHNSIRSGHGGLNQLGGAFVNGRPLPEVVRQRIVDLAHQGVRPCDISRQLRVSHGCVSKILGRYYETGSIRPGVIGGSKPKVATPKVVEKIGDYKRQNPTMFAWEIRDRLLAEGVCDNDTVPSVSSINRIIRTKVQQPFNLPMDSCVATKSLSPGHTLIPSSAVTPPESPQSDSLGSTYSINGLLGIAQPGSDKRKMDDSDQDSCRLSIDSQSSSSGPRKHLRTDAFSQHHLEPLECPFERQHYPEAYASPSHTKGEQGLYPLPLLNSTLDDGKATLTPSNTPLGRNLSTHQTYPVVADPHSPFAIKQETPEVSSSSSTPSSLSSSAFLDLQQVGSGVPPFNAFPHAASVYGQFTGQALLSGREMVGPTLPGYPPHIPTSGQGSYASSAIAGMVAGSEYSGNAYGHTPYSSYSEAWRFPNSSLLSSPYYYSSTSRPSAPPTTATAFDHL

[13] = cytotoxicity in OVCAR8 ovarian cancer cells, dose response, PAX8 project, cell-based, plate reader, dry powder samples (AID 743197); format: functional; details: OVCAR-8
[14] = NIH:OVCAR-3 ovarian cancer cell cytotoxicity, dose response, PAX8 inhibitor project, plate reader, dry powder samples (AID 743044); format: functional, cell-based
[15] = IGROV1 ovarian cancer cell cytotoxicity, dose response, PAX8 inhibitor project, plate reader, dry powder samples (AID 743043); format: functional, cell-based; details: IGROV-1

COc1cc(OC)cc(-c2cc3nc(C)c(CCC(=O)NCc4ccccc4)c(C)n3n2)c1
EC50 [1]: 9.84 µM (active) | EC50 [2]: 9.35 µM (active) | EC50 [3]: 8.43 µM (active) | IC50 [4]: > 80 µM (inactive)

CC(C)(C)n1ncc2c(=O)n(CC(=O)OCc3ccccc3)cnc21
AC50 [5]: 2.51 µM (active) | AC50 [6]: 2.3 µM (active) | EC50 [7]: 23.5 µM (active)

C=CCn1c(SCc2ccc(Br)cc2F)nc2cc(C(=O)O)ccc2c1=O
IC50 (Fatty acid synthase [8]): 11.4 µM (active) | IC50 (Fatty acid synthase [9]): 10.9 µM (active)

CC(C)C[C@@]12C(=O)N(c3ccc(Br)cc3)C(=O)N1[C@H](c1ccc(Br)cc1)[C@@H]1C(=O)N(C(C)(C)C)C(=O)[C@@H]12
IC50 (Fatty acid synthase [8]): 15.9 µM (active) | IC50 (Fatty acid synthase [9]): 14.6 µM (active)

N=c1oc2ccc(Cl)cc2cc1C(=O)NC1CCCCCC1
CC50 [10]: 24 µM (active)

Cc1nn(-c2nnc(NC3CCCCC3)nn2)c(C)c1Br
EC50 [11]: > 67.6 µM (inactive)

Fc1ccccc1CSc1ncnc2c1ncn2C1CCCCO1 (stereo unspecified)
EC50 [11]: > 67.6 µM (inactive)

Cc1nc2c(OCCC3CCCCC3)cccn2c1N(C)C(=O)CCC1CCCC1
AC50 [5]: 9.83 µM (active) | AC50 [6]: 7.16 µM (active)

C[C@H]1CN([C@@H](C)CO)C(=O)Cc2cc(NC(=O)Nc3cccc4ccccc34)ccc2O[C@H]1CN(C)Cc1ccc(C(=O)Nc2ccccc2N)cc1
AC50 [12]: 3.39 µM (active)

Cc1noc(C)c1S(=O)(=O)Nc1ccc2c(c1)CC(=O)N([C@@H](C)CO)C[C@@H](C)[C@@H](CN(C)Cc1ccc(C(=O)Nc3ccccc3N)cc1)O2
AC50 [12]: 2.56 µM (active)

C[C@@H]1CN([C@@H](C)CO)C(=O)Cc2cc(NS(=O)(=O)c3ccc(F)cc3)ccc2O[C@@H]1CN(C)S(=O)(=O)c1ccc(Cl)cc1
AC50 [12]: 3.3 µM (active)

C[C@H]1CN([C@@H](C)CO)C(=O)Cc2cc(NC(=O)Nc3ccc4c(c3)OCO4)ccc2O[C@@H]1CN(C)Cc1ccc(C(F)(F)F)cc1
AC50 [12]: 4.86 µM (active)

C[C@@H]1CCCCO[C@@H](CN(C)Cc2ccncc2)[C@H](C)CN([C@@H](C)CO)C(=O)c2cc(NC(=O)Nc3ccc(C(F)(F)F)cc3)ccc2O1
AC50 (Paired box protein Pax-8): 5.52 µM (active) | AC50 [13]: > 70 µM (inactive) | AC50 [14]: 35.8 µM (active)

C[C@@H]1CN([C@H](C)CO)C(=O)c2cc(NS(=O)(=O)c3ccc(Cl)cc3)ccc2O[C@@H](C)CCCCO[C@H]1CN(C)Cc1ccc2c(c1)OCO2
AC50 (Paired box protein Pax-8): 10.2 µM (active) | AC50 [13]: 51.2 µM (active) | AC50 [14]: 17.5 µM (active) | AC50 [15]: 49.9 µM (active)

C[C@@H]1CCCCO[C@@H](CN(C)Cc2ccc(C(F)(F)F)cc2)[C@H](C)CN([C@@H](C)CO)C(=O)c2cc(NC(=O)Cc3ccccc3)ccc2O1
AC50 (Paired box protein Pax-8): 7.16 µM (active) | AC50 [13]: 33.3 µM (active) | AC50 [14]: 19.8 µM (active) | AC50 [15]: 25.7 µM (active)
